The values that follow come from US9708325B2, “Sulfonimidoylpurinone compounds and derivatives for the treatment and prophylaxis of virus infection” (Hoffmann-La Roche Inc., priority 2015, dated 2017).

Converted amounts (≈) assume the structure as drawn. Like-named read-outs stand apart in the source and are kept apart here. Marks after values point to notes of the source that are not given here.

One series has as its target human TLR7 (Homo sapiens (Human), UniProt Q9NYK1). The series is described as follows: HEK-Blue-hTLR7 cells assay (SEAP reporter). It counts as cell-based. As to conditions: 20 hrs. Here is the method: A stable HEK-Blue-hTLR7 cell line was purchased from InvivoGen (Cat.#: hkb-htlr7, San Diego, Calif., USA). These cells were designed for studying the stimulation of human TLR7 by monitoring the activation of NF-κB. […] Therefore the reporter expression was regulated by the NF-κB promoter upon stimulation of human TLR7 for 20 hrs. The cell culture supernatant SEAP reporter activity was determined using QUANTI-Blue™ kit (Cat.#: rep-qb1, Invivogen, San Diego, Ca, USA) at a wavelength of 640 nm, a detection medium that turns purple or blue in the presence of alkaline phosphatase.
HEK-Blue-hTLR7 cells were incubated at a density of 250,000˜450,000 cells/mL in a volume of 180 μL in a 96-well plate in Dulbecco's Modified Eagle's medium (DMEM) containing 4.5 g/L glucose, 50 U/mL penicillin, […], […], 2 mM L-glutamine, 10% (V/V) heat-inactivated fetal bovine serum for 24 hrs. Then the HEK-Blue-hTLR-7 cells were incubated with addition of 20 μL test compound in a serial dilution in the presence of final DMSO at 1% and perform incubation under 37° C. in a CO2 incubator for 20 hrs. Then 20 μL of the supernatant from each well was incubated with 180 μL Quanti-blue substrate solution at 37° C. for 2 hrs and the absorbance was read at 620˜655 nm using a spectrophotometer. The signalling pathway that TLR7 activation leads to downstream NF-κB activation has been widely accepted, and therefore similar reporter assay was also widely used for evaluating TLR7 agonist (Tsuneyasu Kaisho and Takashi Tanaka, Trends in Immunology, Volume 29, Issue 7, July 2008, […]; Hiroaki Hemmi et al, Nature Immunology 3, 196-200 (2002)).

A short description of series [1]: Metabolic stability in human liver microsomes. As to conditions: 1 μM test compound, 0.5 mg/mL microsomal protein; 6.15 mL/min/kg is the limitation of assay sensitivity. The protocol: The human microsomal stability assay is used for early assessment of metabolic stability of a test compound in human liver microsomes.
Human liver microsomes (Cat. NO.: 452117, Corning, USA; Cat. NO.: H2610, Xenotech, USA) were preincubated with test compound for 10 minutes at 37° C. in 100 mM potassium phosphate buffer, pH 7.4. The reactions were initiated by adding NADPH regenerating system. The final incubation mixtures contained 1 μM test compound, 0.5 mg/mL liver microsomal protein, 1 mM MgCL2, 1 mM NADP, 1 unit/mL isocitric dehydrogenase and 6 mM isocitric acid in 100 mM potassium phosphate buffer, pH 7.4. After incubation times of 0, 3, 6, 9, 15 and 30 minutes at 37° C., 300 μL of cold ACN (including internal standard) was added to 100 μL incubation mixture to terminate the reaction. Following precipitation and centrifugation, the amount of compound remaining in the samples were determined by LC-MS/MS. Controls of no NADPH regenerating system at zero and 30 minutes were also prepared and analyzed.
For orientation: Microsomes from liver hold many membrane-bound enzymes, among them those of drug oxidation.

A further series in a line: LYSA solubility. As to conditions: 0.05 M phosphate buffer, pH 6.5, aqueous buffer, thermodynamic from solid. It counts as physicochemical. Here is the method: LYSA solubility assay is used to determine the aqueous solubility of a compound. Samples were prepared in duplicate from 10 mM DMSO stock solution. […] After one night, the solutions were filtered using a microtiter filter plate. Then the filtrate and its 1/10 dilution were analyzed by HPLC-UV.

Setting [2] is: read-out: HEK-Blue-hTLR7 (EC50 (μM)).

As a reminder, the EC50 is the midpoint of the concentration-response curve. For orientation: solubility (thermodynamic) means the concentration in solution at equilibrium with solid.

human TLR7, sequence (Q9NYK1 27-1049): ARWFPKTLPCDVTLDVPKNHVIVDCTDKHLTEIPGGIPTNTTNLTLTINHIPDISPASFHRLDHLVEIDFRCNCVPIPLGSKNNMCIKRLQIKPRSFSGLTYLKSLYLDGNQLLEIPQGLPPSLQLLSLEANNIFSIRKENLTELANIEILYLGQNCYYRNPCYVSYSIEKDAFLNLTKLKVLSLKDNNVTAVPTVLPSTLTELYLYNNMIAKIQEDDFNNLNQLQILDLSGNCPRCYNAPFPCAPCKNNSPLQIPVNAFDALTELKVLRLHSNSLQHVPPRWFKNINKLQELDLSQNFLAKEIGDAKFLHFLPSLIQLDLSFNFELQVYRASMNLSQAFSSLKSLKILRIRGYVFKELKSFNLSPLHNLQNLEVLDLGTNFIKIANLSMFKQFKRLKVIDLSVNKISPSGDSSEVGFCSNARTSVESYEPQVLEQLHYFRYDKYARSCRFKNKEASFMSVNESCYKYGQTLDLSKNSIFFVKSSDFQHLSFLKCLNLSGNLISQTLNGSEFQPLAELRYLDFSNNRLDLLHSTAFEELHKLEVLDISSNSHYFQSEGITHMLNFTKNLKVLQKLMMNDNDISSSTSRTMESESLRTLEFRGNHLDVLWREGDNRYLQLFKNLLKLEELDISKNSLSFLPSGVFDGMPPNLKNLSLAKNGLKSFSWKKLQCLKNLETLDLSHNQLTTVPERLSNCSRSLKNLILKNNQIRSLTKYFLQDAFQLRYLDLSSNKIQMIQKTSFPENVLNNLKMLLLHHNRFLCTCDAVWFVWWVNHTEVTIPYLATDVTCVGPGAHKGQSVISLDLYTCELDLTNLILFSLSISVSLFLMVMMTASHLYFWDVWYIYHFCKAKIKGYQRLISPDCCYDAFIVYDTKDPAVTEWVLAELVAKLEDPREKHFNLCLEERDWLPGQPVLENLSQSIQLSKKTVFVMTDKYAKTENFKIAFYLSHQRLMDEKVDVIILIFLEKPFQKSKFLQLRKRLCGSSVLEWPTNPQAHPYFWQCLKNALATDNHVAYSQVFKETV

For the compound `CCCS(=N)(=O)c1nc(N)c2[nH]c(=O)n(Cc3ccc(Cl)c(Cl)c3)c2n1` (stereo not shown) [Example 26, 6-Amino-9-[(3,4-dichlorophenyl)methyl]-2-(propylsulfonimidoyl)-7H-purin-8-one], the EC50 on human TLR7 (setting [2]) stood at 0.021 µM.
As to `CCCS(=N)(=O)c1nc(N)c2[nH]c(=O)n(Cc3ccc(C(=O)N4CCCC4)cc3)c2n1` (stereo not shown) [Example 42, 6-Amino-2-(propylsulfonimidoyl)-9-[[4-(pyrrolidine-1-carbonyl)phenyl]methyl]-7H-purin-8-one], the EC50 on human TLR7 (setting [2]) amounted to 0.09 µM.
Turning to `CCCS(=N)(=O)c1nc(N)c2[nH]c(=O)n(Cc3ccc(Cl)cc3)c2n1` (single isomer, unassigned) [Example 9-A, 6-Amino-9-[(4-chlorophenyl)methyl]-2-(propylsulfonimidoyl)-7H-purin-8-one], it took 0.014 µM to reach a half-maximal effect on human TLR7 (HEK-Blue-hTLR7 (EC50 (μM))) (EC50).
The compound `CCCS(=N)(=O)c1nc(N)c2[nH]c(=O)n(Cc3ccc(Cl)cc3)c2n1` (single isomer, unassigned) [Example 9-B, 6-Amino-9-[(4-chlorophenyl)methyl]-2-(propylsulfonimidoyl)-7H-purin-8-one] displayed an EC50 on human TLR7 (HEK-Blue-hTLR7 (EC50 (μM))) of 0.011 µM.
In the case of `CCCS(=N)(=O)c1nc(N)c2[nH]c(=O)n(Cc3ccc(Cl)c(F)c3)c2n1` (stereo not shown) [Example 30, 6-Amino-9-[(4-chloro-3-fluorophenyl)methyl]-2-(propylsulfonimidoyl)-7H-purin-8-one], the EC50 on human TLR7 (setting [2]) worked out at 0.018 µM.
For `CCCS(=N)(=O)c1nc(N)c2[nH]c(=O)n(Cc3ccc(Br)cc3)c2n1` (stereo not shown) [Example 25, 6-Amino-9-[(4-bromophenyl)methyl]-2-(propylsulfonimidoyl)-7H-purin-8-one], on human TLR7 (setting [2]), the EC50 was 0.0096 µM.
`CS(=N)(=O)c1nc(N)c2[nH]c(=O)n(Cc3ccccc3)c2n1` (stereo not shown) [Example 1, 6-Amino-9-benzyl-2-(methylsulfonimidoyl)-7H-purin-8-one]: at human TLR7 (setting [2]), the EC50 was found to be 0.3 µM. The “Human Liver Microsome Clearance (mL/min/kg)” value in series [1] is <6.15* mL/min/kg.
For the compound `CCS(=N)(=O)c1nc(N)c2[nH]c(=O)n(Cc3ccc(C)cc3)c2n1` (stereo not shown) [Example 71, 6-Amino-2-(ethylsulfonimidoyl)-9-(p-tolylmethyl)-7H-purin-8-one], the EC50 on human TLR7 (setting [2]) turned out to be 0.098 µM. Besides, the solubility (thermodynamic) in the series “LYSA solubility” turned out to be 12 µg/mL (≈ 34.6 µM).
As to `CCCS(=N)(=O)c1nc(N)c2[nH]c(=O)n(Cc3cccc(Cl)c3)c2n1` (stereo not shown) [Example 22, 6-Amino-9-[(3-chlorophenyl)methyl]-2-(propylsulfonimidoyl)-7H-purin-8-one], the EC50 at human TLR7 (setting [2]) was found to be 0.042 µM.
As to `N=S(=O)(CC(F)(F)F)c1nc(N)c2[nH]c(=O)n(Cc3ccccc3)c2n1` (stereo not shown) [Example 7, 6-Amino-9-benzyl-2-(2,2,2-trifluoroethylsulfonimidoyl)-7H-purin-8-one], the EC50 on human TLR7 (setting [2]) came out at 0.18 µM. In the series “LYSA solubility”, this compound had a thermodynamic solubility of 18 µg/mL (≈ 46.6 µM).
Take `CCCS(=N)(=O)c1nc(N)c2[nH]c(=O)n(Cc3ccnc(C)c3)c2n1` (stereo not shown) [Example 35, 6-Amino-9-[(2-methyl-4-pyridyl)methyl]-2-(propylsulfonimidoyl)-7H-purin-8-one]: the EC50 at human TLR7 (setting [2]) turned out to be 0.12 µM. Moreover, in series [1], the “Human Liver Microsome Clearance” value is on record as less than 6.15 mL/min/kg.
For the compound `CCCS(=N)(=O)c1nc(N)c2[nH]c(=O)n(Cc3ccc(C(F)(F)F)cc3)c2n1` (stereo not shown) [Example 23, 6-Amino-2-(propylsulfonimidoyl)-9-[[4-(trifluoromethyl)phenyl]methyl]-7H-purin-8-one], the EC50 on human TLR7 (setting [2]) was 0.016 µM.
As for `CCCS(=N)(=O)c1nc(N)c2[nH]c(=O)n(Cc3ccc(C)c(Cl)c3)c2n1` (stereo not shown) [Example 36, 6-Amino-9-[(3-chloro-4-methyl-phenyl)methyl]-2-(propylsulfonimidoyl)-7H-purin-8-one], the EC50 on human TLR7 (setting [2]) is 0.022 µM.
`CCCS(=N)(=O)c1nc(N)c2[nH]c(=O)n(CC(C)C)c2n1` (stereo not shown) [Example 21, 6-Amino-9-isobutyl-2-(propylsulfonimidoyl)-7H-purin-8-one] registered a solubility (thermodynamic) in the series “LYSA solubility” of 121 µg/mL (≈ 387 µM).
For the compound `CCCS(=N)(=O)c1nc(N)c2[nH]c(=O)n(Cc3ccc(C(=O)N4CCCCC4)cc3)c2n1` (stereo not shown) [Example 41, 6-Amino-9-[[4-(piperidine-1-carbonyl)phenyl]methyl]-2-(propylsulfonimidoyl)-7H-purin-8-one], at human TLR7 (setting [2]), the EC50 was 0.084 µM.
Turning to `COc1ccc(Cn2c(=O)[nH]c3c(N)nc(S(=N)(=O)CCCCl)nc32)cc1` (stereo not shown) [Example 11, 6-Amino-2-(3-chloropropylsulfonimidoyl)-9-[(4-methoxyphenyl)methyl]-7H-purin-8-one], at human TLR7 (setting [2]), the EC50 is 0.066 µM. Moreover, the thermodynamic solubility in the series “LYSA solubility” was 18 µg/mL (≈ 43.8 µM).
In the case of `CCCS(=N)(=O)c1nc(N)c2[nH]c(=O)n(Cc3ccc(Cl)c(C)c3)c2n1` (stereo not shown) [Example 28, 6-Amino-9-[(4-chloro-3-methyl-phenyl)methyl]-2-(propylsulfonimidoyl)-7H-purin-8-one], the EC50 at human TLR7 (setting [2]) worked out at 0.021 µM.
In the case of `COCCCS(=N)(=O)c1nc(N)c2[nH]c(=O)n(Cc3ccccc3)c2n1` (stereo not shown) [Example 6, 6-Amino-9-benzyl-2-(3-methoxypropylsulfonimidoyl)-7H-purin-8-one], the EC50 on human TLR7 (setting [2]) is 0.43 µM. The same compound gave a solubility (thermodynamic) in “LYSA solubility” of 89 µg/mL (≈ 236 µM).
As for `CCCS(=N)(=O)c1nc(N)c2[nH]c(=O)n(Cc3ccccc3Cl)c2n1` (stereo not shown) [Example 15, 6-Amino-9-[(2-chlorophenyl)methyl]-2-(propylsulfonimidoyl)-7H-purin-8-one], the EC50 at human TLR7 (setting [2]) is 0.19 µM.
Consider `CCCS(=N)(=O)c1nc(N)c2[nH]c(=O)n(Cc3ccc(C(=O)OC)cc3)c2n1` (stereo not shown) [Example 38, Methyl 4-[[6-amino-8-oxo-2-(propylsulfonimidoyl)-7H-purin-9-yl]methyl]benzoate], for which the EC50 on human TLR7 (setting [2]) worked out at 0.075 µM.
Consider `CS(=N)(=O)c1nc(N)c2[nH]c(=O)n(Cc3cccnc3)c2n1` (single isomer, unassigned) [Example 16-A, 6-Amino-2-(methylsulfonimidoyl)-9-(3-pyridylmethyl)-7H-purin-8-one], for which, on human TLR7 (HEK-Blue-hTLR7 (EC50 (μM))), the response was half-maximal at 0.76 µM (EC50).
In the case of `CCCS(=N)(=O)c1nc(N)c2[nH]c(=O)n(Cc3ccc(C)cc3)c2n1` (stereo not shown) [Example 29, 6-Amino-2-(propylsulfonimidoyl)-9-(p-tolylmethyl)-7H-purin-8-one], the EC50 on human TLR7 (setting [2]) stood at 0.027 µM.
At human TLR7 (HEK-Blue-hTLR7 (EC50 (μM))), `CCCS(=N)(=O)c1nc(N)c2[nH]c(=O)n(Cc3cccc(C#N)c3)c2n1` (stereo not shown) [Example 17, 3-[[6-Amino-8-oxo-2-(propylsulfonimidoyl)-7H-purin-9-yl]methyl]benzonitrile] displayed an EC50 of 0.068 µM.
The same measure, in the same setting: then `CS(=N)(=O)c1nc(N)c2[nH]c(=O)n(Cc3cccnc3)c2n1` (single isomer, unassigned) [Example 16-B, 6-Amino-2-(methylsulfonimidoyl)-9-(3-pyridylmethyl)-7H-purin-8-one], with 0.15 µM; and `COCCS(=N)(=O)c1nc(N)c2[nH]c(=O)n(Cc3ccccc3)c2n1` (single isomer, unassigned) [Example 3-B, 6-Amino-9-benzyl-2-(2-methoxyethylsulfonimidoyl)-7H-purin-8-one], with 0.55 µM.
On to `CCCS(=N)(=O)c1nc(N)c2[nH]c(=O)n(Cc3cccc(C(N)=O)c3)c2n1` (stereo not shown) [Example 18, 3-[[6-amino-8-oxo-2-(propylsulfonimidoyl)-7H-purin-9-yl]methyl]benzamide], for which, at human TLR7 (setting [2]), the EC50 was 0.047 µM. Further, the solubility (thermodynamic) in “LYSA solubility” was determined as 166 µg/mL (≈ 426 µM).
In the case of `COCCS(=N)(=O)c1nc(N)c2[nH]c(=O)n(Cc3ccccc3)c2n1` (single isomer, unassigned) [Example 3-A, 6-Amino-9-benzyl-2-(2-methoxyethylsulfonimidoyl)-7H-purin-8-one], the “Human Liver Microsome Clearance” value in series [1] is given as less than 6.15 mL/min/kg.
Take `CS(=N)(=O)c1nc(N)c2[nH]c(=O)n(Cc3ccccn3)c2n1` (stereo not shown) [Example 19, 6-Amino-2-(methylsulfonimidoyl)-9-(2-pyridylmethyl)-7H-purin-8-one]: on human TLR7 (setting [2]), the EC50 was 0.67 µM. In the series “LYSA solubility”, the thermodynamic solubility was greater than 428 µg/mL.
As for `COc1ccc(Cn2c(=O)[nH]c3c(N)nc(S(C)(=N)=O)nc32)cc1` (stereo not shown) [Example 10, 6-Amino-9-[(4-methoxyphenyl)methyl]-2-(methylsulfonimidoyl)-7H-purin-8-one], the EC50 on human TLR7 (setting [2]) stood at 0.074 µM.
